Legend:
Candida albicans = assay: Growth inhibition of C. albicans (FIG. 6); assay type: cell-based; conditions: for inhibitory activity against C. albicans: at a concentration of 1000 μg/mL; for inhibition of Candida albicans (summary statement): no concentration stated
Description: FIG. 6 is a graph depicting dose-dependent inhibition of the yeast C. albicans by sinapyl aldehyde ([…]), coniferyl aldehyde (∘), and p-hydroxycoumaryl aldehyde (▾).
FIG. 6 depicts dose-dependent inhibition of C. albicans by sinapyl aldehyde ([…]), coniferyl aldehyde (∘), and p-hydroxycoumaryl aldehyde (▾). Here, the inhibition was not as pronounced as against S. cerevisiae.

Saccharomyces cerevisiae = assay: Growth inhibition of the yeast S. cerevisiae (FIG. 5); assay type: cell-based; conditions: for inhibition of S. cerevisiae: at 500 μg/mL; for inhibition of Saccharomyces cerevisiae (summary statement): no concentration stated
Description: FIG. 5 is a graph depicting dose-dependent inhibition of the yeast S. cerevisiae by sinapyl aldehyde ([…]), coniferyl aldehyde (∘), and p-hydroxycoumaryl aldehyde (▾).
FIG. 5 depicts dose-dependent inhibition of S. cerevisiae by sinapyl aldehyde ([…]), coniferyl aldehyde (∘), and p-hydroxycoumaryl aldehyde (▾).

S. sclerotiorum = assay: Colony growth inhibition of S. sclerotiorum (FIG. 4); assay type: cell-based, Sclerotinia sclerotiorum; conditions: for growth of the colony: S. sclerotiorum, 250, 500 and 1,000 μg/mL vs untreated control (DMSO), dose-dependent; for inhibition of Sclerotinia sclerotiorium (summary statement): no concentration stated
Experimental: FIG. 4 is a series of photographs illustrating dose-dependent inhibition of Scelerotinia sclerotiorium by sinapyl aldehyde (top row) and coniferyl aldehyde (bottom row) at concentrations of 250 μg/mL, 500 μg/mL, and 1,000 μg/mL.
FIG. 4 is a series of photographs analogous to FIG. 1, but showing the ability of sinapldehyde and coniferyl aldehyde to attenuate the grown of S. sclerotiorum. […] White mold is particularly significant economically because it affects a wide range of hosts. It is also capable of infecting plants at any stage of growth makes. S. sclerotiorum, can survive on infected tissues, in the soil, and on living plants. It affects young seedlings, mature plants, and fruit in the field or in storage. […] It can also propagate throughout a harvested crop if conditions are not monitored carefully. It infects many extensively planted crops, including soybeans, green beans, sunflowers, canola, and peanuts.

Alternaria alternata = assay: Colony growth inhibition of Alternaria alternata (FIGS. 2, 3); assay type: cell-based; conditions: for inhibition of Alternaria alternata (summary statement): no concentration stated; for colony size: end of six days
Experimental: FIG. 2 is a graph depicting dose-dependent inhibition of Alternaria alternata by sinapyl aldehyde. Control=[…]. 250 μg/mL=∘. 500 μg/mL=▾. 1,000 μg/mL=Δ.
FIG. 3 is a graph depicting dose-dependent inhibition of Alternaria alternata by coniferyl aldehyde. Control=[…]. 250 μg/mL=∘. 500 μg/mL=▾. 1,000 μg/mL=Δ.
Similar to FIG. 1, FIG. 2 is a graph depicting dose-dependent inhibition of Alternaria alternata by sinapyl aldehyde. Time in days is on the X-axis; colony size in cm is on the Y-axis. […] A. alternata has also been implicated as a causative agent of asthma in humans. Salo et al. (October 2006) “Exposure to Alternaria alternata in US homes is associated with asthma symptoms” J Allergy Clin Immunol.; 118(4): 892-898.
(Control=[…]. 250 μg/mL=∘. 500 μg/mL=▾. 1,000 μg/mL=Δ.)

Alternaria solani = assay: Colony growth inhibition of Alternaria solani (FIG. 1); assay type: cell-based; conditions: for growth of the colony: A. solani, 250, 500 and 1,000 μg/mL vs untreated control (DMSO), dose-dependent; for inhibition of Alternaria solani (summary statement): no concentration stated
Experimental: FIG. 1 is a series of photographs illustrating dose-dependent inhibition of Alternaria solani by sinapaldehyde (top row) and coniferyl aldehyde (bottom row) at concentrations of 250 μg/mL, 500 μg/mL, and 1,000 μg/mL.
Without aggressive early control of the pathogen, early blight causes significant yield reductions.

Compound | inhibitory activity against C. albicans (Candida albicans) | inhibition of Candida albicans (summary statement) (Candida albicans) | inhibition of S. cerevisiae (Saccharomyces cerevisiae) | inhibition of Saccharomyces cerevisiae (summary statement) (Saccharomyces cerevisiae) | growth of the colony (S. sclerotiorum) | inhibition of Sclerotinia sclerotiorium (summary statement) (S. sclerotiorum) | growth rates and colony size (Alternaria alternata; A. alternata, 250, 500 and 1,000 μg/mL treatment groups, six days) | inhibition of Alternaria alternata (summary statement) (Alternaria alternata) | growth of the colony (Alternaria solani) | inhibition of Alternaria solani (summary statement) (Alternaria solani) | colony size (Alternaria alternata; A. alternata, 250 μg/mL) | colony size (Alternaria alternata; A. alternata, 500 μg/mL) | colony size (Alternaria alternata; A. alternata, 1,000 μg/mL)
COc1cc(/C=C/C=O)ccc1O [coniferyl aldehyde] | very signification inhibitory activity | show inhibition | very significant inhibition | show inhibition | very significantly inhibited | show inhibition | progressively attenuated growth rates and smaller colony size | show inhibition | very significantly inhibited | show inhibition | – | – | –
COc1cc(/C=C/C=O)cc(OC)c1O [sinapyl aldehyde] | – | show inhibition | very significant inhibition | show inhibition | very significantly inhibited | show inhibition | – | show inhibition | very significantly inhibited | show inhibition | smaller than the untreated colony | smaller still | the smallest of those tested
O=C/C=C/c1ccc(O)cc1 [p-hydroxycoumaryl aldehyde] | very signification inhibitory activity | show inhibition | very significant inhibition | show inhibition | – | show inhibition | – | show inhibition | – | show inhibition | – | – | –

From patent US20170296490A1, “USE OF LIGNIN-DERIVED ALDEHYDES AS ANTIFUNGAL AGENTS” (Wisconsin Alumni Research Foundation, priority 2016, published 2017)
